The values below come from US11696916B2, “Carboxamide-pyrimidine derivatives as SHP2 antagonists” (Merck Patent GmbH, priority 2019, dated 2023).

Series [1] has as its target Full length SHP2 protein (Recombinant Human SHP-2) (Homo sapiens (Human), UniProt Q06124). Description: SHP2 biochemical assay (DiFMUP, activating peptide IRS1_2pY). To be noted: DiFMUP substrate, 60 min RT. How it is done: The inhibition of SHP2 by compounds of the invention was monitored using the surrogate substrate DiFMUP after protein activation by a peptide bearing two appropriately spaced phosphotyrosine. […] The generation of the DiFMU product by activated SHP2 was monitored through Fluorescence measurement with a PerkinElmer Envision reader. The inhibitor dose response curves were analyzed with Genedata Screener.

Series [2] relates to pERK level in KYSE520 cells. Description: p-Erk cellular assay in KYSE520 (Mesoscale). The series is classed as cell-based. As to conditions: Homo sapiens, KYSE-520, 2 h, 2 h compound incubation, read-out: pERK1/2 in KYSE520 IC50. How it is done: The effect of SHP2 inhibitors on pERK level was assessed using phospho-specific antibody using Mesoscale quantification platform. For measuring change in pERK levels using mesoscale, 30,000 cells of MDA MB468 and KYSE520 cells were plated in 96-well tissue culture treated plate in 175 ul volume of media. After an overnight incubation at 37° C., various SHP2 inhibitors were added in different concentration to each well maintaining duplicate wells across plates and incubated with compounds for 2 h at 37° C. followed by a wash with ice cold PBS buffer. The cells were then lysed in lysis buffer and processed and analyzed for p-ERK/ERK as per manufacturer's instructions (Mesoscale discovery, cat No. K15107D-3).

Series [3] in a line: Pharmacokinetics in mouse. The series is classed as in vivo. To be noted: for Cmax Normalized to 1 mgk / AUC (normalized 1 mpk): female CD1 mice; for Cmax Normalized to 1 mgk: normalized to 1 mg/kg; for AUC (normalized 1 mpk): normalized to 1 mpk; for Exposure compared to SHP-099: mouse PK. The procedure: Female CD1 mice (N=3) received a single oral (gavage) or a single intravenous (bolus) injection of compound. […] Consecutive blood samples were taken sub-lingually under isofluorane inhalation from animals after 0.083 (IV), 0.25, 0.5, 1, 2, 4, 6 and 24 h and were further processed to obtain plasma. Samples were protein precipitated and analyzed by LC/MS/MS.

Sequence of Full length SHP2 protein (Recombinant Human SHP-2) (Q06124 2-593): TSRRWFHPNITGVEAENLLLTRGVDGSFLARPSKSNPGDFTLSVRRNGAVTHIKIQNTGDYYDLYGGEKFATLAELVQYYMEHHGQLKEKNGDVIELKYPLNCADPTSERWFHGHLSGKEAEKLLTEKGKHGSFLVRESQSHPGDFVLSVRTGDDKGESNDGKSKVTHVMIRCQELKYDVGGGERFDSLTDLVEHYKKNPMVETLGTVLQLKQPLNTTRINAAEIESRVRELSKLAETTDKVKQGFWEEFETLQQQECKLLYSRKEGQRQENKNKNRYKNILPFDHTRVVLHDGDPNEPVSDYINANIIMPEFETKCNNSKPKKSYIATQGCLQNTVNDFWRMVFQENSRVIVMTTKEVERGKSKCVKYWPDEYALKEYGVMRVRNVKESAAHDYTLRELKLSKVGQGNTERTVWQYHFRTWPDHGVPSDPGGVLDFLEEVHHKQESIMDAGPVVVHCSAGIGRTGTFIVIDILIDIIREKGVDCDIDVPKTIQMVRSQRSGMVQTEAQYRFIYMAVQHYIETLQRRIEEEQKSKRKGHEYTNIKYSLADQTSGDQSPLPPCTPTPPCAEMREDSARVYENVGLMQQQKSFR

As for `C[C@@H]1OCC2(CCN(c3nc(N)c(-c4cccc(Cl)c4Cl)c(C(N)=O)n3)CC2)[C@@H]1N` (atropisomer, axis not shown; (M)) [Compound 67, (5M)-6-amino-2-[(3S,4S)-4-amino-3-methyl-2-oxa-8-azaspiro[4.5]decan-8-yl]-5-(2,3-dichlorophenyl)pyrimidine-4-carboxamide], the IC50 in series [1] stood at 16000 nM.

Consider `Cc1nc(N2CCC3(CC2)CC(F)(F)C[C@H]3N)nc(C(N)=O)c1-c1cccc(Cl)c1Cl` (atropisomer, axis not shown; (M)) [Compound 96, (5M)-2-[(1R)-1-amino-3,3-difluoro-8-azaspiro[4.5]decan-8-yl]-5-(2,3-dichlorophenyl)-6-methylpyrimidine-4-carboxamide], for which the IC50 in series [1] was determined as 62 nM.

Take `NC(=O)c1nc(N2CCC3(CC2)Cc2ccccc2[C@H]3N)nc(N)c1-c1cccc(Cl)c1Cl` (atropisomer, axis not shown; (M)) [Compound 118, (5M)-6-amino-2-[(1S)-1-amino-1,3-dihydrospiro[indene-2,4′-piperidin]-1′-yl]-5-(2,3-dichlorophenyl)pyrimidine-4-carboxamide]: the IC50 in series [2] is 114 nM.

Consider `Cc1nc(N2CCC3(CC2)Cc2ccccc2[C@H]3N)nc(C(N)=O)c1-c1cccc(Cl)c1Cl` (atropisomer, axis not shown; (M)) [Compound 119, (M)-2-[(1S)-1-amino-1,3-dihydrospiro[indene-2,4′-piperidin]-1′-yl]-5-(2,3-dichlorophenyl)-6-methylpyrimidine-4-carboxamide], for which the IC50 in series [2] was found to be 21 nM.

In the case of `NC(=O)c1nc(N2CCC3(CC2)Oc2ncccc2[C@@H]3N)nc(N)c1-c1cccc(Cl)c1Cl` (atropisomer, axis not shown; (M)) [Compound 130, (4M)-6-amino-2-[(3R)-3-amino-3H-spiro[furo[2,3-b]pyridine-2,4-piperidin]-1-yl]-5-(2,3-dichlorophenyl)pyrimidine-4-carboxamide], the IC50 in series [2] is 2240 nM.

`C[C@@H]1OCC2(CCN(c3nc(N)c(-c4cccc(Cl)c4Cl)c(C(N)=O)n3)CC2)[C@@H]1N` (atropisomer, axis not shown; (P)) [Compound 66, (5P)-6-amino-2-[(3S,4S)-4-amino-3-methyl-2-oxa-8-azaspiro[4.5]decan-8-yl]-5-(2,3-dichlorophenyl)pyrimidine-4-carboxamide]: the IC50 in series [1] turned out to be 52 nM.

`Cc1nc(N2CCC3(CC2)CC(F)(F)C[C@H]3N)nc(C(N)=O)c1-c1cccc(Cl)c1Cl` (atropisomer, axis not shown; (P)) [Compound 97, (5P)-2-[(1R)-1-amino-3,3-difluoro-8-azaspiro[4.5]decan-8-yl]-5-(2,3-dichlorophenyl)-6-methylpyrimidine-4-carboxamide]: the IC50 in series [1] turned out to be 4400 nM.

For the molecule `Cc1nc(N2CCC3(CC2)CO[C@@H](C)[C@H]3N)nc(C(N)=O)c1-c1cccc(Cl)c1Cl` (single isomer, unassigned) [Compound 95], in series [3], the “Cmax Normalized to 1 mgk” value worked out at 150 ng/mL, the “AUC (normalized 1 mpk)” value amounted to 1214 ng·h/mL and the “Exposure compared to SHP-099” value is “higher exposure”.

In the case of `NC(=O)c1nc(N2CCC3(CC2)Cc2ccccc2[C@H]3N)nc(N)c1-c1cccc(Cl)c1Cl` (single isomer, unassigned) [Compound 117], in series [2], the IC50 turned out to be 1 nM.

As for `NC(=O)c1nc(N2CCC3(CC2)Oc2ncccc2C3N)nc(N)c1-c1cccc(Cl)c1Cl` (single isomer, unassigned) [Compound 128], the IC50 in series [2] is 161 nM.

`CC1(N)CCN(c2nc(N)c(-c3cccc(Cl)c3Cl)c(C(N)=O)n2)CC1` [Compound 27, (4P)-6-amino-2-(4-amino-4-methylpiperidin-1-yl)-5-(2,3-dichlorophenyl)pyrimidine-4-carboxamide]: in series [3], the “Cmax Normalized to 1 mgk” value turned out to be 48 ng/mL, the “AUC (normalized 1 mpk)” value worked out at 230 ng·h/mL and the “Exposure compared to SHP-099” value was “higher exposure”.

Regarding `Cc1nc(N2CCC3(CC2)Oc2ncccc2[C@H]3N)nc(C(N)=O)c1-c1cccc(Cl)c1Cl` [Compound 124, (4M)-2-[(3R)-3-amino-3H-spiro[furo[2,3-b]pyridine-2,4′-piperidin]-1′-yl]-5-(2,3-dichlorophenyl)-6-methylpyrimidine-4-carboxamide], the IC50 in series [2] came out at 268 nM.

Take `CC1(N)CCN(c2cnc(-c3cccc(Cl)c3Cl)c(N)n2)CC1` [SHP-099, SHP099, reference compound]: in series [3], the “Cmax Normalized to 1 mgk” value came out at 48 ng/mL and the “AUC (normalized 1 mpk)” value was 129 ng·h/mL.
